In US12514251B2, “Fused heterocyclic compounds and their use as pest control agents” (priority 2020, dated 2026) one finds mortality data, which are given here for ten molecules.

Some results are limits rather than exact numbers.

Assay type in all cases: in vivo
In assay [1] the test system is Plutella xylostella. In words: Plutella xylostella, leaf dip method. To be noted: foliar, cabbage leaf dip, second instar larvae, 72 h after release, dead + moribund vs untreated control, read-out: percent mortality. The procedure, abridged: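 Cabbage leaves were dipped for 10 s in compound diluted with 0.01% Triton-X, shade dried and offered singly to second instar larvae. Trays were held at 25° C. and 70% relative humidity. Dead plus moribund larvae were scored at 72 h, and percent mortality was expressed relative to untreated control.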

In assay [2] the test system is Myzus persicae. The assay is described as follows: Myzus persicae, leaf dip method. To be noted: foliar, capsicum leaf dip, third instar nymphs, 72 h after release, dead + moribund vs untreated control, read-out: percent mortality. As to the method: The leaf dip method was used for testing, wherein the required quantity of the compound was weighed and dissolved in a tube containing solvent solution. The tube was put on a vortex at 2000 rpm for 90 min for proper mixing, then diluted with 0.01% Triton-X solution to the desired test concentration. Capsicum leaves were dipped in the compound solution for 10 seconds, shade dried for 20 min and then placed, with the abaxial side of the leaf up, in single cells of a bio-assay tray containing 4 ml of a 1% agar-agar solution. Known numbers of third instar nymphs, collected in petri plates, were released into the cell with the treated leaf and the cell was covered with a perforated lid for better aeration. The trays were kept in a plant growth chamber at a temperature of 25° C. and a relative humidity of 70%. Observations on dead, moribund and alive nymphs were recorded 72 h after the release. Percent mortality was calculated by combining dead and moribund nymphs and comparing the result with the one of the untreated control.

Assay [3] relates to Helicoverpa armigera. In words: Helicoverpa armigera, diet incorporation method. To be noted: third instar larvae, 96 h after release, dead + moribund vs untreated control, read-out: percent mortality. As to the method:
(§1) The diet incorporation method was used, in which the required quantity of the test compound was weighed and dissolved in a tube containing solvent solution. The tube was put on a vortex at 2000 rpm for 90 min for proper mixing. Semi-synthetic diet was incorporated into this solution when the temperature was approximately 50° C. in the bioassay containers. Compound and diet were stirred thoroughly for proper mixing and allowed to cool for 30 min. The solidified diet was cut into equal pieces, and then each piece was transferred into one cell of a bio-assay tray. A single starved third instar larva was released into each of the cells of the bioassay trays and the tray was covered with a lid. The bio-assay trays were then kept under laboratory conditions at a temperature of 25° C. and a relative humidity of 70%. Observations on dead, moribund and alive larvae were recorded 96 h after the release of the larvae. Percent mortality was calculated by combining dead and moribund larvae and comparing the result to the one of the untreated control.

In assay [4] the test system is Spodoptera litura. In words: Spodoptera litura, diet incorporation method. To be noted: third instar larvae, 96 h after release, dead + moribund vs untreated control, read-out: percent mortality. On the procedure:
as §1, with “covered with the lid. The” for “covered with a lid. The”, “release of larvae. Percent” for “release of the larvae. Percent”

On to `CCCNc1ccc(S(=O)(=O)CC)c(-c2ccn3nc(C(F)(F)F)cc3n2)n1` [Compound 244, 5-(ethylsulfonyl)-N-propyl-6-(2-(trifluoromethyl)pyrazolo[1,5-a]pyrimidin-5-yl)pyridin-2-amine], for which the mortality at 300 ppm in assay [1] and in assay [2] was ≥ 70% each time.

In the case of `CCS(=O)(=O)c1cc(O)cnc1-c1ccn2nc(C(F)(F)F)nc2n1` [Compound 109, 5-(ethylsulfonyl)-6-(2-(trifluoromethyl)-[1,2,4]triazolo[1,5-a]pyrimidin-5-yl)pyridin-3-ol], in assay [2], the mortality – broadly, the percentage killed – at 300 ppm is ≥ 70%.

With `CCSc1cc(Br)cnc1-c1ccnc2cc(C(F)(F)F)nn12` [Compound 11, 7-(5-bromo-3-(ethylthio)pyridin-2-yl)-2-(trifluoromethyl)pyrazolo[1,5-a]pyrimidine], the mortality at 300 ppm in assay [2] is ≥ 70%.

In the case of `CCS(=O)(=O)c1cc(-c2ccc(OC(F)(F)C(F)F)cc2)cnc1-c1ccn2nc(C(F)(F)F)cc2n1` [Compound 96, 5-(3-(ethylsulfonyl)-5-(4-(1,1,2,2-tetrafluoroethoxy)phenyl)pyridin-2-yl)-2-(trifluoromethyl)pyrazolo[1,5-a]pyrimidine], the mortality at 300 ppm in assay [3], in assay [4] and in assay [1] was ≥ 70% each time.

Regarding `CCS(=O)(=O)c1cccnc1-c1ccn2nc(C(F)(F)F)cc2n1` [Compound 160, 5-(3-(ethylsulfonyl)pyridin-2-yl)-2-(trifluoromethyl)pyrazolo[1,5-a]pyrimidine], the mortality at 300 ppm in assay [3], in assay [1] and in assay [2] was ≥ 70% throughout.

In the case of `CCS(=O)(=O)c1ccc(-n2cnc(C(F)(F)F)n2)nc1-c1ccn2nc(C(F)(F)F)cc2n1` [Compound 4, 5-(3-(ethylsulfonyl)-6-(3-(trifluoromethyl)-1H-1,2,4-triazol-1-yl)pyridin-2-yl)-2-(trifluoromethyl)pyrazolo[1,5-a]pyrimidine], the mortality at 300 ppm in assay [3], in assay [4] and in assay [1] was ≥ 70% in each case.

As to `CCS(=O)(=O)c1cc(OC(C)(C)C(N)=O)cnc1-c1ccn2nc(C(F)(F)F)cc2n1` [Compound 220, 2-((5-(ethylsulfonyl)-6-(2-(trifluoromethyl)pyrazolo[1,5-a]pyrimidin-5-yl)pyridin-3-yl)oxy)-2-methylpropanamide], the mortality at 300 ppm in assay [1] and in assay [2] was ≥ 70% each time.

In the case of `CCS(=O)(=O)c1cc(-c2ccc(F)cc2)cnc1-c1ccn2nc(C(F)(F)F)cc2n1` [Compound 94, 5-(3-(ethylsulfonyl)-5-(4-fluorophenyl)pyridin-2-yl)-2-(trifluoromethyl)pyrazolo[1,5-a]pyrimidine], the mortality at 300 ppm in assay [3], in assay [4] and in assay [1] was ≥ 70% throughout.

Regarding `CCS(=O)(=O)c1cc(-c2cccc(C(F)(F)F)c2)cnc1-c1ccn2nc(C(F)(F)F)cc2n1` [Compound 156, 5-(3-(ethylsulfonyl)-5-(3-(trifluoromethyl)phenyl)pyridin-2-yl)-2-(trifluoromethyl)pyrazolo[1,5-a]pyrimidine], the mortality at 300 ppm in assay [3], in assay [4] and in assay [1] was ≥ 70% in each case.

As for `CCS(=O)(=O)c1cc(C2CC2)cnc1-c1ccn2nc(C(F)(F)F)cc2n1` [Compound 136, 5-(5-cyclopropyl-3-(ethylsulfonyl)pyridin-2-yl)-2-(trifluoromethyl)pyrazolo[1,5-a]pyrimidine], the mortality at 300 ppm in assay [3], in assay [4] and in assay [1] was ≥ 70% throughout.
